Laboratory results from ChEMBL document CHEMBL5030563, “Structure-Based Design of Dual-Acting Compounds Targeting Adenosine A2A Receptor and Histone Deacetylase as Novel Tumor Immunotherapeutic Agents” (J Med Chem, 2021).

Tests used:
[1] = tested on: CT26; test: Antiproliferative activity against mouse CT26 cells measured after 72 hrs by CCK8 assay; assay type: functional
[2] = molecular target: T1, Protein deacetylase HDAC6 (Homo sapiens, UniProt Q9UBN7); test: Inhibition of HDAC6 (unknown origin) assessed as release of 7-amino-4-methylcoumarin incubated in room temperature for 15 min measured by Spectra max microtitre plate reader
T1 sequence (Q9UBN7 whole entry): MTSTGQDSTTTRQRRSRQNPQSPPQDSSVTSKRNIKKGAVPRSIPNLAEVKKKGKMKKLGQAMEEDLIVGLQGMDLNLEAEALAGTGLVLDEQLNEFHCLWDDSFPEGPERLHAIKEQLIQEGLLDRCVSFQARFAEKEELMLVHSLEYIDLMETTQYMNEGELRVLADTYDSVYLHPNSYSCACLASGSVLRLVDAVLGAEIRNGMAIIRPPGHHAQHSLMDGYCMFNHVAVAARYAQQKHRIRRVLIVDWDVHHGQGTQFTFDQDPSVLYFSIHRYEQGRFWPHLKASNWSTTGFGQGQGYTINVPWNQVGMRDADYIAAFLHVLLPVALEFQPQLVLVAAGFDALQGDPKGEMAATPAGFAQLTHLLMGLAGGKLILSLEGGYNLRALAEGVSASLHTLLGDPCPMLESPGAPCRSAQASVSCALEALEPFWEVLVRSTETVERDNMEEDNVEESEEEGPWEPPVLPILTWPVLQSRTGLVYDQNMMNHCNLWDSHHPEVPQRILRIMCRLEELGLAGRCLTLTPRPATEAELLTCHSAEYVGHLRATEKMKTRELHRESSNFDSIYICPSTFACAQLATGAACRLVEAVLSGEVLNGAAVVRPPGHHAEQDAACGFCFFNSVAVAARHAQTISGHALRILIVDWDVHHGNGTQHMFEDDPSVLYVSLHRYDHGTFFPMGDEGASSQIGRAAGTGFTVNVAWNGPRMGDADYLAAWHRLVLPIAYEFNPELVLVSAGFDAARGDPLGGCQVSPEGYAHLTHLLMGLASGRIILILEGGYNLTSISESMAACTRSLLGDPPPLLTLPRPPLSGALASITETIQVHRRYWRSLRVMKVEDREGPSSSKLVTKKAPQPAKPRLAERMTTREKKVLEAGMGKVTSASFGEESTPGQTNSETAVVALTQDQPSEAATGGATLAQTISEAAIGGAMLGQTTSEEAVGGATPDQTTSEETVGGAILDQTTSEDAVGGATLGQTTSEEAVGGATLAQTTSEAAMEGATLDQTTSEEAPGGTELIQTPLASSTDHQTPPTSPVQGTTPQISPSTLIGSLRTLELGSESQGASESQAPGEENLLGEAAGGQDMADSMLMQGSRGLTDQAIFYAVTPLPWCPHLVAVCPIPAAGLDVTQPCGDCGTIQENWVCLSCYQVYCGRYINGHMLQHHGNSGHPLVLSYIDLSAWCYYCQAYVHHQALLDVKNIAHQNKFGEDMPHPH

[3] = tested on: MC-38; test: Antiproliferative activity against mouse MC38 cells measured after 72 hrs by CCK8 assay; assay type: functional
[4] = molecular target: Histone deacetylase 1 (Homo sapiens, UniProt Q13547); test: Inhibition of HDAC1 (unknown origin) assessed as release of 7-amino-4-methylcoumarin incubated in room temperature for 15 min measured by Spectra max microtitre plate reader
Histone deacetylase 1, sequence (Q13547 whole entry): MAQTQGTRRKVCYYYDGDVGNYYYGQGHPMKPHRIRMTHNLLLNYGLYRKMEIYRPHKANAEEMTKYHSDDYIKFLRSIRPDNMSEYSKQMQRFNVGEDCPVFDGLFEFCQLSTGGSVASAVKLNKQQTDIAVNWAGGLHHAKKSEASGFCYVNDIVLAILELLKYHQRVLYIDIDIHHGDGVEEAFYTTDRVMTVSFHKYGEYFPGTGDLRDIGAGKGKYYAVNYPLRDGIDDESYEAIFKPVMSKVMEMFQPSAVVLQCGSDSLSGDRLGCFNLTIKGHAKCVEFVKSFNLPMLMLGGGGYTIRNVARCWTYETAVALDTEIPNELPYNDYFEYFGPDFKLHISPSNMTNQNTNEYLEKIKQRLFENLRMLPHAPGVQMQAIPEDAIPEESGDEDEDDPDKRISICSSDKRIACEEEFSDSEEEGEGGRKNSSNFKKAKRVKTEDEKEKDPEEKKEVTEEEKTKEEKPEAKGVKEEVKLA

[5] = molecular target: Adenosine receptor A2a (Homo sapiens, UniProt P29274); test: Displacement of [3H]SCH58261 from adenosine A2A receptor membrane (unknown origin) measured after 60 mins by scintillation counting analysis; assay type: cell membranes
Adenosine receptor A2a, sequence (P29274 whole entry): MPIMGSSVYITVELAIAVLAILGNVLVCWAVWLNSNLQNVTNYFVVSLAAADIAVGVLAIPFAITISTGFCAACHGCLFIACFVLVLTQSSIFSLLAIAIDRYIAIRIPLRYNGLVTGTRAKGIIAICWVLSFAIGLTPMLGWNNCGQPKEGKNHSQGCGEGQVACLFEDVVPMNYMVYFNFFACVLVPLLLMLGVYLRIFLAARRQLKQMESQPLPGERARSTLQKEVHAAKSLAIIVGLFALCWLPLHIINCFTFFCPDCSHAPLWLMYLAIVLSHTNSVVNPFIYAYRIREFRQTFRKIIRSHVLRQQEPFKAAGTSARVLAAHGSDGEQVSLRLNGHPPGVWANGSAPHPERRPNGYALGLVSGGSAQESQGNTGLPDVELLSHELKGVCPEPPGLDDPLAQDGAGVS

[6] = molecular target: T2, Adenosine receptor A3 (Homo sapiens, UniProt P0DMS8); test: Displacement of [3H]DPCPX from human adenosine A3 receptor membrane (unknown origin) measured after 60 mins by scintillation counting analysis; assay type: cell membranes
T2 sequence (P0DMS8 whole entry): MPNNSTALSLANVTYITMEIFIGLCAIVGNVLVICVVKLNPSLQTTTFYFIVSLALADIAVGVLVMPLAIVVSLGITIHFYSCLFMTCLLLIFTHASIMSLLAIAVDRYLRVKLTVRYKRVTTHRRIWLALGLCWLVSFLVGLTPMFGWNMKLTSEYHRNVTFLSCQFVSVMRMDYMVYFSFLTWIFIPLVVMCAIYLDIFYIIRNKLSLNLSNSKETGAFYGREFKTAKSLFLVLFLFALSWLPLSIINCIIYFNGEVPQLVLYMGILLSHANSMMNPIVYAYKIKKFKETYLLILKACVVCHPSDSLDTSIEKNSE

SMILES | GI50 ([1]; Mus musculus, CT26) [µM] | IC50 [2] [nM] | IC50 [4] [nM] | Ki [5] [nM] | GI50 [1] [µM] | Ki [6] [µM] | GI50 ([3]; Mus musculus, MC-38) [µM] | GI50 [3] [µM]
Nc1nc(NCCc2ccc(C(=O)NO)cc2)nc2nc(-c3ccco3)nn12 | > 100 | 14.8 | 104 | 6.3 |  |  | > 100 | 
Nc1nc2c(cnn2CCc2ccc(C(=O)NO)cc2)c2nc(-c3ccco3)nn12 | 100 | 7.6 | 138 | 4.3 |  |  | 100 | 
Nc1nc2c(cnn2CCN2CCc3ccc(C(=O)NO)cc3C2)c2nc(-c3ccco3)nn12 |  | 80 | 399 | 5.6 |  |  |  | 
O=C(CCCCCCC(=O)Nc1ccccc1)NO [VORINOSTAT] |  |  |  |  | 2.7 |  |  | 2.4
Nc1ccccc1NC(=O)c1ccc(OCCn2ncc3c2nc(N)n2nc(-c4ccco4)nc32)cc1 | 8.8 |  | 279 | 43.7 |  |  | 7.1 | 
CCN(CCc1ccc(C(=O)NO)cc1)c1nc(N)n2nc(-c3ccco3)nc2n1 |  | 22 | 175 | 2.4 |  |  |  | 
Nc1ccccc1NC(=O)c1ccc(CCNc2nc(N)n3nc(-c4ccco4)nc3n2)cc1 | 59.1 | > 10000 | 137 | 3.9 |  |  | 48.2 | 
Nc1nc2c(cnn2CCc2ccccc2)c2nc(-c3ccco3)nn12 [SCH-58261] | > 100 |  |  |  |  | > 10 | > 100 | 
Nc1ccccc1NC(=O)c1ccc(CCn2ccc3c2nc(N)n2nc(-c4ccco4)nc32)cc1 | > 100 |  | 90 | 0.87 |  |  | > 100 | 
CN(CCc1ccc(C(=O)NO)cc1)c1nc(N)n2nc(-c3ccco3)nc2n1 | 75.1 | 17.4 | 159 | 4.4 |  |  | 69.2 | 
Nc1nc(NCCc2ccc(OCCCC(=O)NO)cc2)nc2nc(-c3ccco3)nn12 |  | 132 | 108 | 6 |  |  |  | 
Nc1nc(NCCc2ccc(OCCCCC(=O)NO)cc2)nc2nc(-c3ccco3)nn12 |  | 37 | 102 | 5.8 |  |  |  | 
Nc1cc(F)ccc1NC(=O)c1ccc(CCCn2ncc3c2nc(N)n2nc(-c4ccco4)nc32)cc1 |  |  | 2680 | 10.1 |  |  |  | 
Nc1nc2c(cnn2CCCCC(=O)NO)c2nc(-c3ccco3)nn12 |  | 74 | 486 | 82.8 |  |  |  | 
Cc1ccc(-c2nc3c4cnn(CCc5ccc(C(=O)Nc6ccccc6N)cc5)c4nc(N)n3n2)o1 | > 100 |  | 126 | 18.5 |  |  | > 100 | 
Nc1cc(F)ccc1NC(=O)c1ccc(CCn2ncc3c2nc(N)n2nc(-c4ccco4)nc32)cc1 | 11.2 |  | 228 | 2.8 |  |  | 10.8 | 
Nc1nc(N2CCN(CCc3ccc(C(=O)NO)cc3)CC2)nc2nc(-c3ccco3)nn12 | > 100 | 19 | 220 | 4.2 |  |  | > 100 | 
Nc1nc(NCCc2ccc(O)cc2)nc2nc(-c3ccco3)nn12 [ZM-241385] |  | > 1000 | > 10000 |  |  |  |  | 
Nc1ccccc1NC(=O)c1ccc(CCCn2ncc3c2nc(N)n2nc(-c4ccco4)nc32)cc1 | > 100 |  | 203 | 3.3 |  |  | > 100 | 
Nc1nc2c(cnn2CCN2Cc3ccc(C(=O)NO)cc3C2)c2nc(-c3ccco3)nn12 |  |  | > 10000 | 60.4 |  |  |  | 
Nc1nc(NCc2ccc(OCCCCC(=O)NO)cc2)nc2nc(-c3ccco3)nn12 |  | 35 | 162 | 19.9 |  |  |  | 
Nc1cc(F)ccc1NC(=O)c1ccc(CCNc2nc(N)n3nc(-c4ccco4)nc3n2)cc1 | 44 | > 10000 | 173 | 9.6 |  |  | 25.9 | 
Nc1ccccc1NC(=O)c1ccc(CNc2nccc(-c3cccnc3)n2)cc1 [MOCETINOSTAT] | 1.8 |  |  |  |  |  | 21 | 

More lines, main results first:

GI50 ([1]; Mus musculus, CT26) [µM] | IC50 [2] [nM] | IC50 [4] [nM] | Ki [5] [nM] | GI50 [1] [µM] | Ki [6] [µM] | SMILES | GI50 ([3]; Mus musculus, MC-38) [µM] | GI50 [3] [µM]
32.4 | > 10000 | 68.5 | 4.9 |  |  | Nc1ccccc1NC(=O)c1ccc(OCCNc2nc(N)n3nc(-c4ccco4)nc3n2)cc1 | 36.9 | 
17.5 | 9 | 5 | 27 |  |  | Nc1nc(NCc2ccc(/C=C/C(=O)NO)cc2)nc2nc(-c3ccco3)nn12 | 20.7 | 
> 100 | 18 | 21.5 | 15.7 |  |  | CN(CCOc1ccc(C(=O)NO)cc1)c1nc(N)n2nc(-c3ccco3)nc2n1 | > 100 | 
16.5 | > 10000 | 65.7 | 34.8 |  |  | Nc1ccccc1NC(=O)c1ccc(CNc2nc(N)n3nc(-c4ccco4)nc3n2)cc1 | 14.1 | 
> 100 | 3.2 | 7.4 | 10.2 |  |  | Nc1nc(NCCOc2ccc(C(=O)NO)cc2)nc2nc(-c3ccco3)nn12 | > 100 | 
17.8 | 15 | 27 | 77.8 |  |  | Nc1nc2c(cnn2CCCCCC(=O)NO)c2nc(-c3ccco3)nn12 | 14 | 
> 100 | 4.9 | 23.7 | 8.4 |  |  | Nc1nc(NCCCc2ccc(C(=O)NO)cc2)nc2nc(-c3ccco3)nn12 | > 100 | 
11.9 | 32 | 84 | 3.7 |  |  | Nc1nc2c(cnn2CCN2CCC(c3ccc(C(=O)NO)cc3)CC2)c2nc(-c3ccco3)nn12 | 16.9 | 
> 100 | 5.9 | 8 | 4.9 |  |  | Nc1nc2c(cnn2CCc2ccc(NC(=O)CCCCCCC(=O)NO)cc2)c2nc(-c3ccco3)nn12 | > 100 | 
25.2 | > 10000 | 59.5 | 3.9 |  |  | Nc1ccccc1NC(=O)c1ccc(CCCNc2nc(N)n3nc(-c4ccco4)nc3n2)cc1 | 25.4 | 
42.9 | 69 | 10.2 | 37.8 |  |  | Nc1nc(NCCc2ccc(/C=C/C(=O)NO)cc2)nc2nc(-c3ccco3)nn12 | 40.5 | 
 | > 10000 | 53 | 86.9 |  |  | Nc1ccccc1NC(=O)c1ccc(Cn2ncc3c2nc(N)n2nc(-c4ccco4)nc32)cc1 |  | 
1.4 | 6.6 | 3.8 | 10.1 |  |  | Nc1nc2c(cnn2CCCCCCC(=O)NO)c2nc(-c3ccco3)nn12 | 1.4 | 
31.6 | 10.6 | 7.7 | 21.2 |  |  | Nc1nc(NCCCCCCC(=O)NO)nc2nc(-c3ccco3)nn12 | 35.7 | 
25.9 | 8 | 86.7 | 0.95 |  |  | Nc1nc(NCCc2ccc(OCCCCCC(=O)NO)cc2)nc2nc(-c3ccco3)nn12 | 15 | 
 | 3 | 21.5 | 84.8 |  |  | Nc1nc(NCc2ccc(C(=O)NO)cc2)nc2nc(-c3ccco3)nn12 |  | 
> 100 | 5.9 | 11.5 | 11.3 |  |  | Nc1nc(NCCc2ccc(NC(=O)CCCCCCC(=O)NO)cc2)nc2nc(-c3ccco3)nn12 | > 100 | 
 | 16 | 81 | 2 |  |  | Nc1nc2c(cnn2CCc2ccc(OCCCCCC(=O)NO)cc2)c2nc(-c3ccco3)nn12 |  | 
